The values that follow come from ChEMBL document CHEMBL1201862, “PubChem BioAssay data set” (2004).

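In this assay, cells in 96-well plates receive the compound at five concentrations for 48 hours. Endpoints are linearly interpolated between the surrounding concentrations. GI50 = concentration required for 50% inhibition of growth.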 Activity calls are given as the source filed them. No stated cut-off is given here; in the data, active = GI50 up to about 1.1 µM and inactive = higher.

Among the test systems are K562; SF-295; U-251; SN12C; UACC-257; OVCAR-8; SK-MEL-5; SK-MEL-2; NCI-H460; A549; EKVX; NCI-H522; OVCAR-4; SNB-19; RPMI-8226; M14; SNB-75; UACC-62; LOX IMVI; SW-620.
Holding throughout (assay): inhibition of tumour cell growth, NCI panel, 48 h

On to `COC(=O)c1c(OC(C)=O)ccc2c1c1c(OC(C)=O)c3ccccc3c(OC(C)=O)c1n2Cc1cc(OC)cc(OC)c1`, for which the GI50 in the experiment with K562 was 11 µM (inactive); with SF-295, 18.2 µM (inactive); with U-251 it was 5.5 µM (inactive); with SN12C, 45.7 µM (inactive); with UACC-257 it was 25.7 µM (inactive); in the experiment on OVCAR-8, 4.93 µM (inactive). Further, the GI50 is 4.06 µM (inactive) with SK-MEL-5; 3.31 µM (inactive) with SK-MEL-2; 3.53 µM (inactive) in the experiment on NCI-H460; 6 µM (inactive) with A549; 2.58 µM (inactive) with EKVX; 3.06 µM (inactive) with NCI-H522. Also, the GI50 with OVCAR-4 is 4.41 µM (inactive); with SNB-19 it was 9.2 µM (inactive); with RPMI-8226, 3.94 µM (inactive); in the experiment on M14, 5.11 µM (inactive); with SNB-75, 7.19 µM (inactive); with UACC-62 it was 4.41 µM (inactive).
Consider `CN(C(=O)OC(C)(C)C)[C@H]1CCCC[C@H]1N1CCCC1`, for which the GI50 with LOX IMVI, in the experiment with K562, in the experiment on SF-295, in the experiment with U-251, with SN12C and in the experiment with SW-620 was > 100 µM (inactive) throughout. Further, the GI50 with UACC-257 was 53.7 µM (inactive); in the experiment on OVCAR-8, > 100 µM (inactive); in the experiment on SK-MEL-5, > 100 µM (inactive); in the experiment on SK-MEL-2 it was > 100 µM (inactive); in the experiment on A549, > 100 µM (inactive); in the experiment with EKVX, > 100 µM (inactive). The GI50 in the experiment on NCI-H522, in the experiment on OVCAR-4, with SNB-19, in the experiment with RPMI-8226, in the experiment with M14 and in the experiment with UACC-62 was > 100 µM (inactive) throughout.
As for `Cc1cccc(-c2nc(-c3cnccn3)n(Cc3ccccc3)n2)c1`, the GI50 is > 100 µM (inactive) in the experiment on LOX IMVI; > 100 µM (inactive) with K562; 50.8 µM (inactive) in the experiment with SF-295; > 100 µM (inactive) in the experiment on U-251; > 100 µM (inactive) in the experiment on SN12C; > 100 µM (inactive) with SW-620. Also, the GI50 is > 100 µM (inactive) with UACC-257; 99.1 µM (inactive) in the experiment with OVCAR-8; > 100 µM (inactive) in the experiment with SK-MEL-5; > 100 µM (inactive) with NCI-H460; > 100 µM (inactive) in the experiment with A549; > 100 µM (inactive) with NCI-H522. Further, the GI50 with OVCAR-4 is 27.2 µM (inactive); in the experiment on SNB-19 it was 95.1 µM (inactive); in the experiment on RPMI-8226 it was > 100 µM (inactive); with M14, > 100 µM (inactive); in the experiment on SNB-75, < 0.01 µM (active); in the experiment on UACC-62 it was 70.8 µM (inactive).
Take `CS(=O)(=O)Nc1ccc(Nc2ccnc3ccc4[nH]ccc4c23)cc1`: the GI50 in the experiment with LOX IMVI is 9.12 µM (inactive); in the experiment with K562 it was 6.64 µM (inactive); in the experiment on SF-295, 24.5 µM (inactive); in the experiment with U-251, 9.93 µM (inactive); in the experiment with SN12C it was 7.96 µM (inactive); with SW-620, 8.32 µM (inactive). Also, the GI50 with UACC-257 is 15.6 µM (inactive); in the experiment with OVCAR-8, 7.96 µM (inactive); in the experiment with SK-MEL-5 it was 11.7 µM (inactive); with SK-MEL-2, 10.3 µM (inactive); in the experiment with NCI-H460 it was 15.2 µM (inactive); with A549 it was 19.5 µM (inactive). In addition, the GI50 in the experiment with EKVX was 24.8 µM (inactive); in the experiment on NCI-H522, 6.4 µM (inactive); in the experiment on OVCAR-4 it was 7.83 µM (inactive); with SNB-19 it was 6.52 µM (inactive); in the experiment on RPMI-8226, 21 µM (inactive); in the experiment on M14, 16.1 µM (inactive). Besides, in the experiment on UACC-62, the GI50 was 14.3 µM (inactive).
For the compound `c1ccc2c(c1)CCCc1cc3ccccc3nc1-2`, the GI50 in the experiment with K562 was > 100 µM (inactive); with SF-295 it was > 100 µM (inactive); in the experiment on U-251, > 100 µM (inactive); in the experiment with SN12C, > 100 µM (inactive); in the experiment with SW-620 it was > 100 µM (inactive); in the experiment on UACC-257 it was 54.8 µM (inactive). The GI50 with OVCAR-8 is > 100 µM (inactive); in the experiment on SK-MEL-5, 92.5 µM (inactive); with SK-MEL-2, > 100 µM (inactive); with NCI-H460, > 100 µM (inactive); with A549, > 100 µM (inactive); in the experiment with EKVX, > 100 µM (inactive). Moreover, the GI50 in the experiment with NCI-H522 was 82.4 µM (inactive); with OVCAR-4, 68.1 µM (inactive); in the experiment on SNB-19, > 100 µM (inactive); in the experiment on RPMI-8226 it was 31 µM (inactive); in the experiment with M14, > 100 µM (inactive); with SNB-75, 75.3 µM (inactive). Besides, in the experiment with UACC-62, the GI50 was > 100 µM (inactive).
As for `O=C(Nc1noc(-c2ccccc2)n1)c1ccccc1CNc1noc(-c2ccccc2)n1`, the GI50 in the experiment with LOX IMVI, in the experiment on K562, with SF-295, in the experiment on U-251, in the experiment on SN12C and with SW-620 was > 100 µM (inactive) each time. For the same compound, the GI50 is > 100 µM (inactive) in the experiment with UACC-257; > 100 µM (inactive) with OVCAR-8; > 100 µM (inactive) in the experiment with SK-MEL-5; > 100 µM (inactive) in the experiment with NCI-H460; > 100 µM (inactive) in the experiment on A549; 76.7 µM (inactive) in the experiment with EKVX. The GI50 in the experiment with NCI-H522, with OVCAR-4, in the experiment with SNB-19, in the experiment with RPMI-8226, with M14 and in the experiment on SNB-75 was > 100 µM (inactive) in each case. Also, in the experiment with UACC-62, the GI50 was > 100 µM (inactive).
`CC12OC3(O)C4C5CC(C6C5C3C61)C42` (stereo not given): the GI50 in the experiment on K562, in the experiment with U-251, in the experiment on SN12C, with SW-620, in the experiment on UACC-257 and in the experiment with OVCAR-8 was > 100 µM (inactive) each time. The GI50 in the experiment with SK-MEL-2, in the experiment with A549, in the experiment on NCI-H522, in the experiment with OVCAR-4, in the experiment on SNB-19 and in the experiment on RPMI-8226 was > 100 µM (inactive) throughout. Also, the GI50 in the experiment with M14 is 29.4 µM (inactive); in the experiment with SNB-75 it was > 100 µM (inactive); with UACC-62, > 100 µM (inactive).
`CN(C)/C=C(\C(=O)c1ccccc1)n1nc(-c2ccccc2)cc1-c1ccccc1`: the GI50 with LOX IMVI, with SF-295, with U-251, in the experiment with SN12C, in the experiment with SW-620 and in the experiment on UACC-257 was > 10 µM (inactive) in each case. Also, the GI50 with OVCAR-8, with SK-MEL-5, in the experiment on SK-MEL-2, with NCI-H460, in the experiment with A549 and with EKVX was > 10 µM (inactive) in each case. Also, the GI50 with NCI-H522, in the experiment with OVCAR-4, in the experiment with SNB-19, with RPMI-8226, in the experiment with M14 and in the experiment with UACC-62 was > 10 µM (inactive) in each case.
On to `CC(=O)Nc1ccc(COC(O)CN2CCCCC2)cc1[N+](=O)[O-]` (stereo not given), for which the GI50 in the experiment on K562, with SF-295, in the experiment with U-251, in the experiment with SN12C, in the experiment on SW-620 and in the experiment with UACC-257 was > 100 µM (inactive) in each case. The GI50 in the experiment with OVCAR-8, in the experiment with SK-MEL-5, in the experiment with SK-MEL-2, in the experiment with NCI-H460, in the experiment with A549 and in the experiment with NCI-H522 was > 100 µM (inactive) throughout. The GI50 in the experiment on OVCAR-4, in the experiment with SNB-19, in the experiment on RPMI-8226, in the experiment with M14, in the experiment with SNB-75 and in the experiment with UACC-62 was > 100 µM (inactive) throughout.
As to `CN(C)CCNC1=C(Cl)C(=O)c2c(O)ccc(O)c2C1=O`, the GI50 in the experiment on K562 is 2.76 µM (inactive); with SF-295, 2.12 µM (inactive); with U-251, 1.84 µM (inactive); in the experiment with SN12C it was 1.89 µM (inactive); in the experiment with SW-620, 2.02 µM (inactive); with UACC-257, 1.72 µM (inactive). Further, the GI50 in the experiment with OVCAR-8 was 1.9 µM (inactive); with SK-MEL-5, 1.54 µM (inactive); in the experiment with SK-MEL-2, 2.1 µM (inactive); in the experiment on NCI-H460, 1.95 µM (inactive); with A549, 2.58 µM (inactive); with EKVX, 2.97 µM (inactive). Further, the GI50 in the experiment on NCI-H522 was 1.79 µM (inactive); in the experiment on OVCAR-4, 1.87 µM (inactive); in the experiment with SNB-19 it was 1.95 µM (inactive); with RPMI-8226 it was 2.65 µM (inactive); in the experiment on M14, 1.95 µM (inactive); with SNB-75, 2.99 µM (inactive). The GI50 in the experiment with UACC-62 is 1.85 µM (inactive).
On to `Cn1cnc2nc(Cl)nc(NC(C)(C)C(C)(C)O)c21`, for which the GI50 in the experiment with K562, in the experiment on SF-295, in the experiment with U-251, with SN12C, in the experiment with SW-620 and in the experiment on UACC-257 was > 100 µM (inactive) throughout. Besides, the GI50 in the experiment on OVCAR-8, with SK-MEL-5, in the experiment with SK-MEL-2, in the experiment on NCI-H460, in the experiment on A549 and in the experiment with EKVX was > 100 µM (inactive) throughout. The GI50 in the experiment on NCI-H522 is 72.4 µM (inactive); in the experiment with OVCAR-4 it was > 100 µM (inactive); in the experiment on SNB-19 it was > 100 µM (inactive); in the experiment on RPMI-8226, > 100 µM (inactive); in the experiment on M14 it was > 100 µM (inactive); in the experiment on SNB-75, > 100 µM (inactive). In addition, in the experiment with UACC-62, the GI50 was > 100 µM (inactive).
